pIC50: −log10 of the molar value. Values after ≈ are worked out from the molar mass of the structure shown. Where two headings read alike, the source gives them in different places.
Assays:
[1] = biological target: human histamine 4 receptor (hH4R) (Homo sapiens (Human), UniProt Q9H3N8); experiment: Binding affinity of human histamine 4 receptor (hH4R), [3H] labeled histamine displacement; settings: hH4R-overexpressed cell membrane, [3H] histamine
In short: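 Membranes of hH4R-overexpressing cells (25 μg) incubated with compound and [3H]histamine (diluted to 1 μM before addition) for 30 min at 27° C. Non-specific binding defined with histamine (100 μM before addition); bound radioligand collected by filtration on PEI-presoaked glass fibre, washed with 50 mM Tris-HCl pH 7.4, counted by scintillation (CPM).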

[2] = biological target: human histamine 3 receptor (hH3R) (Homo sapiens (Human), UniProt Q9Y5N1); experiment: Binding affinity of human histamine 3 receptor (hH3R), [3H] labeled N-α-methylhistamine displacement; settings: hH3R-overexpressed cell membrane, [3H] N-α-methylhistamine
In short: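 Membranes from cells overexpressing hH3R (15 μg) were incubated with compound and [3H]N-α-methylhistamine (20 μM stock) in 50 mM Tris-HCl pH 7.4, 5 mM MgCl2 for 30 min at 27 °C. Bound radioligand was counted by scintillation after filtration; 200 μM (R)(−)-α-methylhistamine stock defined non-specific binding; IC50 derived.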

[3] = biological target: human serotonin 3 receptor (human 5-HT3 receptor) (Homo sapiens (Human), UniProt P46098); experiment: Binding affinity of human serotonin 3 receptor (performed at Cerep); settings: for inhibition at 10 µM: read-out: % inhibition degree at 10 μM, human serotonin 3 receptor (h5-HT3R); for pIC50: read-out: Binding affinity (IC50) of human serotonin 3 receptor (h5-HT3R)
Experimental: The binding assays of the human serotonin 3 receptor for present invention were performed at Cerep (Poitiers, France), and the results of analysis are shown in Table 3.

[4] = Solubility in artificial gastrointestinal tract solution; format: physicochemical; settings: for solubility at 1 h / solubility at 2 h: artificial gastrointestinal tract solution, thermodynamic from solid; for solubility at 1 h: fassgf or other biorelevant; for solubility at 2 h: fassif
Experimental: 2.0 g of sodium chloride was added in 7.0 mL of 37% of hydrochloric acid and water to make the total volume of 1 L. The pH was adjusted to exactly 1.2 with 1N sodium hydroxide or 1N hydrochloric acid. A small amount (20 mL) of this solution was taken and added in 25 μL of triton X-100 to make the total volume of 25 mL.
0.348 g sodium hydroxide, 3.438 g NaH2PO4, 6.186 g sodium chloride and water were added to make the total volume of 1 L. The pH was adjusted to exactly 6.5 with 1N sodium hydroxide or 1N hydrochloric acid. A small amount (20 mL) of this solution was taken and 41.25 mg of sodium taurocholate hydrate and 25 μL of 750 mM lecithin dissolved in ethanol was added to make the total volume of 25 mL.
The heated test sample solutions were filtered to remove undissolved compounds therein. Finally, 100 μL of the completely compound-dissolved solution was sampled and 100 μL of CH3CN was added thereto to make the test sample solution. For each analysis of the test sample solution, the solubility was measured by using liquid chromatography.

[5] = Mouse pharmacokinetics (oral); format: in vivo; settings: ICR mouse, 5 mg/mL solution at 10 mL/kg; for Cmax / AUC(0-inf) / half-life: plasma, 50 mg/kg; for AUC(0-inf): read-out: Mouse pharmacokinetics AUCinf; for half-life: read-out: Mouse pharmacokinetics t1/2 (converted)
Experimental: (§1) The weight of each ICR mouse and SD rat was properly 20˜30 g and 200˜300 g, and dosage of the compound of the present invention was 10 mL/kg for mice and 5 mL/kg for rats, and administered orally using Zonde. Blood collection was performed at 0.25, 0.5, 1, 2, 4, 6, 8 and 24 hours by orbital venous blood collection using a capillary tube coated with an anticoagulant, and then plasma was isolated using a centrifuge and kept in a freezer.
(§2) Plasma collected from animals and standard concentration material were pretreated using solid-phase extraction, and concentration of the compound of the invention was determined using a liquid chromatography mass spectrometer (Agilent HPLC, API-3000).
(§3) According to the resulting concentration value, the pharmacokinetics parameter was found using WinNonlin (Version 6.2) and half-life (t1/2), maximum blood concentration (Cmax) and infinite area under the curve (AUCinf) are shown in Tables 6 and 7 below.

[6] = Rat pharmacokinetics (oral); format: in vivo; settings: SD rat, 2 mg/mL solution at 5 mL/kg
Experimental: as §1, §2, §3

[7] = system: histamine-induced mast cell migration (trachea); experiment: Histamine-induced mast cell migration; format: in vivo, Balb/c mice; settings: 20 mg/kg oral, 0.1 M histamine aerosol, 2 days
Experimental: Female, Balb/c mice (7 weeks old, 20±3 g) were purchased from OrientBio Co., Ltd.
The animals were housed under conditions of controlled temperature (23±3° C.), humidity (50±5%) and lighting with food and water available ad libitum.
Mice were dosed with either vehicle (20% cyclodextrin in second distilled water) or the compound by orally administration. The Compound (20 mg/kg) dissolved in a vehicle and administered orally at a volume of 10 mL/kg. After 15 minutes, mice were challenged by a 20 min aerosol inhalation of PBS (phosphate buffered saline) or 0.1 M histamine (dissolving in PBS). This process was repeated for 2 days. After a final challenge, the tracheae were cleared of blood via perfusion of PBS and tracheae were extracted, the tracheae were fixed in 10% (w/v) formaldehyde for subsequent paraffin cross-sectioning and toluidine blue staining. Total mast cells were calculated, and a mean was reported. (The Journal of Pharmacology and Experimental Therapeutics, 2004, 309, 404-413). Statistical analysis was analyzed using one-way ANOVA with Dunnett test. Values of p<0.05 were considered statistically significant.

[8] = Metabolic stability in mouse microsome; settings: mouse microsome 1 mg/mL, 5 μM compound, 1 mM NADPH
[9] = Metabolic stability in human microsome; settings: human microsome 1 mg/mL, 5 μM compound, 1 mM NADPH
[10] = system: histamine-induced itching, ICR mice; experiment: Histamine-induced itching model in ICR mice; format: in vivo; settings: 50 mg/kg oral, histamine 300 nmol intradermal, 20 min count
Experimental: Female, ICR mice (8 weeks old) were purchased from OrientBio Co., Ltd. The animals were housed under conditions of controlled temperature (23±3° C.), humidity (50±5%) and lighting with food and water available ad libitum.
The hair was clipped using clippers (8000AD, THRIVE) over the rostral part of the back 24 hours before the experiment under anesthesia with isoflurane. Histamine (300 nmol) was dissolved in saline and a volume of 40 μL injected intradermally into the rostral part of the back. Mice were dosed with either vehicle (20% cyclodextrin in second distilled water) or the compound by orally administration. The Compound (50 mg/kg) dissolved in a vehicle (20% cyclodextrin in second distilled water) and administered orally at a volume of 10 mL/kg.
Mice (n=10 per group) were divided into 3 groups (normal group, control group and experimental group). The animals were randomized for similar body weight distribution. A vehicle or the compound was administered 20 minutes before injection of histamine or saline. Immediately after intradermal injection, the animals were returned to an acrylic cage (approximately 30×30×30 cm, access production) composed of four cells, to which they had been acclimated for at least 1 hour before the experiment, for observation of itch responses. A camera (Samsung, VLUUNV30) was positioned above the mice to record their response. Itch was measured by blinded counting of the number of scratching in the 20 min period immediately after the intradermal injection. A number of scratching was defined as 3 or more individual rapid scratch movements with the hind paws around the injection site (J. Allergy Clin. Immunol. 2007, 19(1), 176-183). All data were analyzed by using Excel and Prism, and all values are expressed as the mean±S.E.M. The inhibitory effect of compounds is shown as a percentage of the maximal response to histamine (100% control group).
Statistical analysis was analyzed using one-way ANOVA with Dunnett test. Values of p<0.05 were considered statistically significant.

[11] = microsomes, 5 μM, pH 7.4
[12] = microsomes, 5 μM, pH 7.4; remark: listed apart in the source
[13] = system: oxazolone-induced atopic dermatitis, Balb/c mice; experiment: Oxazolone-induced atopic dermatitis model in Balb/c mice; format: in vivo; settings: 100 mg/kg, BID, oral, days 8-28
Experimental: Female, Balb/c mice (6 weeks old, 20±3 g) were purchased from OrientBio Co., Ltd. The animals were housed under conditions of controlled temperature (23±3° C.), humidity (50±5%) and lighting with food and water available ad libitum.
On the beginning day (day 1), mice were sensitized by the topical application of 50 μL of 1% oxazolone in acetone and olive oil (4:1 ratio) on the abdominal skin. On day 8, 10, 12, 15, 17, 19, 22, 24 and 26, 25 μL of 0.2% oxazolone was applied topically on the inner side of right ear of each mouse. Between days 8 and 28, the compound of the invention was administered orally (10 mL/kg) twice a day in the morning and afternoon, and on days 12, 19 and 27, the thickness of the right ear of the mouse was measured. On day 28, the ear tissue of the mouse was extracted, fixed in 10% formalin solution, and then a tissue slide was prepared, stained with H&E (hematoxylin & eosin), and then the thickness of the ear was observed (Journal of Investigative Dermatology, 2008, 128, 79-86). Statistical analysis was analyzed using one-way ANOVA with Dunnett test. Values of p<0.05 were considered statistically significant.

[14] = first solution pH 1.2, 2 mg/mL sample, 37° C. 1 hour
[15] = second solution pH 6.5, 2 mg/mL sample, 37° C. 2 hours

Sequence of human histamine 3 receptor (hH3R) (Q9Y5N1 whole entry): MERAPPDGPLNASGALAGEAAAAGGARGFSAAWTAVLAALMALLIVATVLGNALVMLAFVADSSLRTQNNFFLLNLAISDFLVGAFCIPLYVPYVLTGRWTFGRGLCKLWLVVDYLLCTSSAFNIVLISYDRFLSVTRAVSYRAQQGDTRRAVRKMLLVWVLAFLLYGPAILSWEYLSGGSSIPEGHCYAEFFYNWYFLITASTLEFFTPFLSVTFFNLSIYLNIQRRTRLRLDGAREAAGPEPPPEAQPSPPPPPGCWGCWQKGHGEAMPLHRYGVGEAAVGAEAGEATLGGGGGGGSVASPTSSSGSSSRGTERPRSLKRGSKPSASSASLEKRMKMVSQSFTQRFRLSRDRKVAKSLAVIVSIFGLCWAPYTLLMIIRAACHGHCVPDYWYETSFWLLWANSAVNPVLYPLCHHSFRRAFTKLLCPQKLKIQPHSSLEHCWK
Sequence of human histamine 4 receptor (hH4R) (Q9H3N8 whole entry): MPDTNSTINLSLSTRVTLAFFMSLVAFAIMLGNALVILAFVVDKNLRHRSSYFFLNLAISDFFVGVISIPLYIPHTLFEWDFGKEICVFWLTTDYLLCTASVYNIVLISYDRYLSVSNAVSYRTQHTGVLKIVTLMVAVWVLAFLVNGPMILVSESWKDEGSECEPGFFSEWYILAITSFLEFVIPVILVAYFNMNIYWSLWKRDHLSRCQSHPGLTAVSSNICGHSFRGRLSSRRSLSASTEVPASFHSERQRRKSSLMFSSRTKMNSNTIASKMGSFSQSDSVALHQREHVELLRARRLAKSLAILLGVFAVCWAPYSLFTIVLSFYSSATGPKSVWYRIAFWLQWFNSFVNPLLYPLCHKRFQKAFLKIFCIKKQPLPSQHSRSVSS
Sequence of human serotonin 3 receptor (human 5-HT3 receptor) (P46098 24-478): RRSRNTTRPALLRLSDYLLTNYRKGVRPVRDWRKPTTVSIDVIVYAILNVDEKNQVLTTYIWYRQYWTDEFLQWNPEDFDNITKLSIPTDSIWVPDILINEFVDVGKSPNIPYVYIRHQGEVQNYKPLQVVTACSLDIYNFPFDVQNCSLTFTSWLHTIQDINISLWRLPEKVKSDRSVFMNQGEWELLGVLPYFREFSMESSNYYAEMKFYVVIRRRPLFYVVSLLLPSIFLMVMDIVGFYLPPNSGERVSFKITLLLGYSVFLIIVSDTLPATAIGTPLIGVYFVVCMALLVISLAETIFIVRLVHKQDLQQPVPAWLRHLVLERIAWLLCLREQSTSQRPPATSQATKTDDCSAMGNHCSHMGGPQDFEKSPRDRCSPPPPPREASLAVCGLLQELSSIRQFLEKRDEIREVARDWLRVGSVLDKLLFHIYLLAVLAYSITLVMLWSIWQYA

SMILES	pIC50 [1]	pIC50 [2]	inhibition at 10 µM [3] [%]	pIC50 [3]	solubility at 1 h [4, 14] [µg/mL]	solubility at 2 h [4, 15] [µg/mL]	Cmax [5] [ng/mL]	AUC(0-inf) [5] [ng·h/mL]	half-life [5] [h]	Mast cell migration (% change from control group) [7]	Metabolic stability (CLh. int), Mouse [8] [µL/min/mg]	Metabolic stability (CLh. int), Human [9] [µL/min/mg]	other results
CNC1CN(c2nc3ncc(C#N)cc3n3cnnc23)C1 [Compound 25, 4-(3-(Methylamino)azetidin-1-yl)pyrido[2,3-e][1,2,4]triazolo[4,3-a]pyrazin-8-carbonitrile]	7.00	< 4.00	0	< 5.00	1930 (≈ 6.87 mM)	1380 (≈ 4.94 mM)	9760	14000	1.17	48.4^1%	4590	4160	Cmax ([6]; plasma, 10 mg/kg): 970 ng/mL; AUC(0-inf) ([6]; plasma, 10 mg/kg, read-out: Rat pharmacokinetics AUCinf): 2920 ng·h/mL; half-life ([6]; plasma, 10 mg/kg, read-out: Rat pharmacokinetics t1/2 (converted)): 2.21 h
Cc1nc2c3cc(Cl)cnc3nc(N3CCN(C)CC3)n2n1 [Compound 31, 9-Chloro-2-methyl-5-(4-methylpiperazin-1-yl)pyrido[3,2-e][1,2,4]triazolo[1,5-c]pyrimidine]	7.80	< 4.00	–	–	2010 (≈ 6.33 mM)	1980 (≈ 6.23 mM)	11700	22400	1.79	–	28630	5190	Number of scratching (% changes from control group) [10]: 89.3^1%
Clc1cnc2nc(N3CCN4CCCC4C3)c3nncn3c2c1 (stereo not shown) [Compound 29, 8-Chloro-4-(hexahydropyrrolo[1,2-a]pyrazin-2(1H)-yl)pyrido[2,3-e][1,2,4]triazolo[4,3-a]pyrazine]	7.31	–	–	–	1560 (≈ 4.73 mM)	1990 (≈ 6.04 mM)	–	–	–	–	–	–	Metabolic stability (CLh. int), Mouse [11]: 12070 µL/min/mg; Metabolic stability (CLh. int), Human [12]: 3950 µL/min/mg
CNC1CN(c2nc3ncc(Cl)cc3n3nnnc23)C1 [Compound 93, 1-(8-Chloropyrido[2,3-e]tetrazolo[1,5-a]pyrazin-4-yl)-N-methylazetidin-3-amine]	7.19	< 4.00	18	< 5.00	1970 (≈ 6.78 mM)	1310 (≈ 4.49 mM)	10800	121000	15.6	–	9470	4480	–
CN1CCN(c2nc3ccc(Cl)cc3n3cnnc23)CC1 [reference compound]	7.66	5.05	–	–	–	–	–	–	–	23.1^1%	111630	10990	Solubility, First solution (pH = 1.2) [4, 14]: 1708.3 μg/mL; Solubility, Second solution (pH = 6.5) [4, 15]: 320.1 μg/mL; Mouse pharmacokinetics AUCinf [5]: 6650 ng·h/mL; Mouse pharmacokinetics Cmax [5]: 3840 ng/mL; Mouse pharmacokinetics t1/2 [5]: 3.49 h; Rat pharmacokinetics AUCinf [6]: 1060 ng·h/mL; Rat pharmacokinetics Cmax [6]: 490 ng/mL; Rat pharmacokinetics t1/2 [6]: 1.09 h; Ear epidermis thickness (% change from control group) [13]: 8.0%

From patent US9586959B2, “Substituted tricyclic heterocycles as histamine 4 receptor inhibitors” (C&C RESEARCH LABORATORIES, priority 2011, dated 2017)
